Results from publication PMC11124822, “Discovery and Anticancer Screening of Novel Oxindole-Based Derivative Bearing Pyridyl Group as Potent and Selective Dual FLT3/CDK2 Kinase Inhibitor” (Pharmaceuticals, 2024).

Tested on: OVCAR-3
Assay: NCI-60 antiproliferative screen (SRB)
Type: cell-based, human
Details: Homo sapiens; 10 µM single dose, 48 h; OVCAR-3 (Ovarian); read-out: Growth inhibition (%)

| Compound | inhibition at 10 µM [%] |
| --- | --- |
| O=C1Nc2cc(Cl)ccc2C1=Cc1ccc(OCc2ccncc2)cc1 (mixture of isomers) [Compound 5p, (E/Z)-6-Chloro-3-[4-(pyridin-4-ylmethoxy)benzylidene]indolin-2-one] | 53 |

Tested on: OVCAR-8
Assay: NCI-60 antiproliferative screen (SRB)
Type: cell-based, human
Details: Homo sapiens; 10 µM single dose, 48 h; OVCAR-8 (Ovarian); read-out: Growth inhibition (%)

| Compound | inhibition at 10 µM [%] |
| --- | --- |
| O=C1Nc2cc(Cl)ccc2C1=Cc1ccc(OCc2ccncc2)cc1 (mixture of isomers) [Compound 5p, (E/Z)-6-Chloro-3-[4-(pyridin-4-ylmethoxy)benzylidene]indolin-2-one] | 61.3 |

Tested on: HCT-116
Assay: NCI-60 antiproliferative screen (SRB)
Type: cell-based, human
Details: Homo sapiens; 10 µM single dose, 48 h; HCT-116 (Colon); read-out: Growth inhibition (%)

| Compound | inhibition at 10 µM [%] |
| --- | --- |
| O=C1Nc2cc(Cl)ccc2C1=Cc1ccc(OCc2ccncc2)cc1 (mixture of isomers) [Compound 5p, (E/Z)-6-Chloro-3-[4-(pyridin-4-ylmethoxy)benzylidene]indolin-2-one] | 61.5 |

Tested on: MDA-MB-468
Assay: NCI-60 antiproliferative screen (SRB)
Type: cell-based, human
Details: Homo sapiens; 10 µM single dose, 48 h; MDA-MB-468 (Breast); read-out: Growth inhibition (%)

| Compound | inhibition at 10 µM [%] |
| --- | --- |
| O=C1Nc2cc(Cl)ccc2C1=Cc1ccc(OCc2ccncc2)cc1 (mixture of isomers) [Compound 5p, (E/Z)-6-Chloro-3-[4-(pyridin-4-ylmethoxy)benzylidene]indolin-2-one] | 65.6 |

Tested on: OVCAR-5
Assay: NCI-60 antiproliferative screen (SRB)
Type: cell-based, human
Details: Homo sapiens; 10 µM single dose, 48 h; OVCAR-5 (Ovarian); read-out: Growth inhibition (%)

| Compound | inhibition at 10 µM [%] |
| --- | --- |
| O=C1Nc2cc(Cl)ccc2C1=Cc1ccc(OCc2ccncc2)cc1 (mixture of isomers) [Compound 5p, (E/Z)-6-Chloro-3-[4-(pyridin-4-ylmethoxy)benzylidene]indolin-2-one] | -29.4 |

Tested on: MDA-MB-231
Assay: NCI-60 antiproliferative screen (SRB)
Type: cell-based, human
Details: Homo sapiens; 10 µM single dose, 48 h; MDA-MB-231 (Breast); read-out: Growth inhibition (%)

| Compound | inhibition at 10 µM [%] |
| --- | --- |
| O=C1Nc2cc(Cl)ccc2C1=Cc1ccc(OCc2ccncc2)cc1 (mixture of isomers) [Compound 5p, (E/Z)-6-Chloro-3-[4-(pyridin-4-ylmethoxy)benzylidene]indolin-2-one] | 32.7 |

Tested on: U251
Assay: NCI-60 antiproliferative screen (SRB)
Type: cell-based, human
Details: Homo sapiens, U-251; 10 µM single dose, 48 h; U251 (CNS); read-out: Growth inhibition (%)

| Compound | inhibition at 10 µM [%] |
| --- | --- |
| O=C1Nc2cc(Cl)ccc2C1=Cc1ccc(OCc2ccncc2)cc1 (mixture of isomers) [Compound 5p, (E/Z)-6-Chloro-3-[4-(pyridin-4-ylmethoxy)benzylidene]indolin-2-one] | 64.4 |

Tested on: OVCAR-4
Assay: NCI-60 antiproliferative screen (SRB)
Details: Homo sapiens, OVCAR-4, 48 h, read-out: Growth inhibition (%)

| Compound | inhibition at 10 µM [%] |
| --- | --- |
| O=C1Nc2cc(Cl)ccc2C1=Cc1ccc(OCc2ccncc2)cc1 (mixture of isomers) [Compound 5p, (E/Z)-6-Chloro-3-[4-(pyridin-4-ylmethoxy)benzylidene]indolin-2-one] | 31.8 |

Tested on: RXF 393
Assay: NCI-60 antiproliferative screen (SRB)
Type: cell-based, human
Details: Homo sapiens; 10 µM single dose, 48 h; RXF 393 (Renal); read-out: Growth inhibition (%)

| Compound | inhibition at 10 µM [%] |
| --- | --- |
| O=C1Nc2cc(Cl)ccc2C1=Cc1ccc(OCc2ccncc2)cc1 (mixture of isomers) [Compound 5p, (E/Z)-6-Chloro-3-[4-(pyridin-4-ylmethoxy)benzylidene]indolin-2-one] | 67.4 |

Tested on: KM12
Assay: NCI-60 antiproliferative screen (SRB)
Type: cell-based, human
Details: Homo sapiens; 10 µM single dose, 48 h; KM12 (Colon); read-out: Growth inhibition (%)

| Compound | inhibition at 10 µM [%] |
| --- | --- |
| O=C1Nc2cc(Cl)ccc2C1=Cc1ccc(OCc2ccncc2)cc1 (mixture of isomers) [Compound 5p, (E/Z)-6-Chloro-3-[4-(pyridin-4-ylmethoxy)benzylidene]indolin-2-one] | 47.8 |

Tested on: A498
Assay: NCI-60 antiproliferative screen (SRB)
Type: cell-based, human
Details: Homo sapiens; 10 µM single dose, 48 h; A498 (Renal); read-out: Growth inhibition (%)

| Compound | inhibition at 10 µM [%] |
| --- | --- |
| O=C1Nc2cc(Cl)ccc2C1=Cc1ccc(OCc2ccncc2)cc1 (mixture of isomers) [Compound 5p, (E/Z)-6-Chloro-3-[4-(pyridin-4-ylmethoxy)benzylidene]indolin-2-one] | -1.39 |

Tested on: CAKI-1
Assay: NCI-60 antiproliferative screen (SRB)
Type: cell-based, human
Details: Homo sapiens; 10 µM single dose, 48 h; CAKI-1 (Renal); read-out: Growth inhibition (%)

| Compound | inhibition at 10 µM [%] |
| --- | --- |
| O=C1Nc2cc(Cl)ccc2C1=Cc1ccc(OCc2ccncc2)cc1 (mixture of isomers) [Compound 5p, (E/Z)-6-Chloro-3-[4-(pyridin-4-ylmethoxy)benzylidene]indolin-2-one] | 52.8 |

Tested on: SK-MEL-2
Assay: NCI-60 antiproliferative screen (SRB)
Type: cell-based, human
Details: Homo sapiens; 10 µM single dose, 48 h; SK-MEL-2 (Melanoma); read-out: Growth inhibition (%)

| Compound | inhibition at 10 µM [%] |
| --- | --- |
| O=C1Nc2cc(Cl)ccc2C1=Cc1ccc(OCc2ccncc2)cc1 (mixture of isomers) [Compound 5p, (E/Z)-6-Chloro-3-[4-(pyridin-4-ylmethoxy)benzylidene]indolin-2-one] | 27.6 |

Tested on: MCF7
Assay: NCI-60 antiproliferative screen (SRB)
Type: cell-based, human
Details: Homo sapiens; 10 µM single dose, 48 h; MCF7 (Breast); read-out: Growth inhibition (%)

| Compound | inhibition at 10 µM [%] |
| --- | --- |
| O=C1Nc2cc(Cl)ccc2C1=Cc1ccc(OCc2ccncc2)cc1 (mixture of isomers) [Compound 5p, (E/Z)-6-Chloro-3-[4-(pyridin-4-ylmethoxy)benzylidene]indolin-2-one] | 71.6 |

Tested on: UO-31
Assay: NCI-60 antiproliferative screen (SRB)
Type: cell-based, human
Details: Homo sapiens; 10 µM single dose, 48 h; UO-31 (Renal); read-out: Growth inhibition (%)

| Compound | inhibition at 10 µM [%] |
| --- | --- |
| O=C1Nc2cc(Cl)ccc2C1=Cc1ccc(OCc2ccncc2)cc1 (mixture of isomers) [Compound 5p, (E/Z)-6-Chloro-3-[4-(pyridin-4-ylmethoxy)benzylidene]indolin-2-one] | 49 |

Tested on: HCC-2998
Assay: NCI-60 antiproliferative screen (SRB)
Type: cell-based, human
Details: Homo sapiens; 10 µM single dose, 48 h; HCC-2998 (Colon); read-out: Growth inhibition (%)

| Compound | inhibition at 10 µM [%] |
| --- | --- |
| O=C1Nc2cc(Cl)ccc2C1=Cc1ccc(OCc2ccncc2)cc1 (mixture of isomers) [Compound 5p, (E/Z)-6-Chloro-3-[4-(pyridin-4-ylmethoxy)benzylidene]indolin-2-one] | 20.1 |

Tested on: MALME-3M
Assay: NCI-60 antiproliferative screen (SRB)
Type: cell-based, human
Details: Homo sapiens; 10 µM single dose, 48 h; MALME-3M (Melanoma); read-out: Growth inhibition (%)

| Compound | inhibition at 10 µM [%] |
| --- | --- |
| O=C1Nc2cc(Cl)ccc2C1=Cc1ccc(OCc2ccncc2)cc1 (mixture of isomers) [Compound 5p, (E/Z)-6-Chloro-3-[4-(pyridin-4-ylmethoxy)benzylidene]indolin-2-one] | 12.5 |

Tested on: RPMI-8226
Assay: NCI-60 antiproliferative screen (SRB)
Type: cell-based, human
Details: Homo sapiens; 10 µM single dose, 48 h; RPMI-8226 (Leukemia); read-out: Growth inhibition (%)

| Compound | inhibition at 10 µM [%] |
| --- | --- |
| O=C1Nc2cc(Cl)ccc2C1=Cc1ccc(OCc2ccncc2)cc1 (mixture of isomers) [Compound 5p, (E/Z)-6-Chloro-3-[4-(pyridin-4-ylmethoxy)benzylidene]indolin-2-one] | 74.9 |

Tested on: MOLT-4
Assay: NCI-60 antiproliferative screen (SRB)
Type: cell-based
Details: Homo sapiens; 10 µM single dose, 48 h; MOLT-4 (Leukemia); read-out: Growth inhibition (%)

| Compound | inhibition at 10 µM [%] |
| --- | --- |
| O=C1Nc2cc(Cl)ccc2C1=Cc1ccc(OCc2ccncc2)cc1 (mixture of isomers) [Compound 5p, (E/Z)-6-Chloro-3-[4-(pyridin-4-ylmethoxy)benzylidene]indolin-2-one] | 79 |

Tested on: SF-295
Assay: NCI-60 antiproliferative screen (SRB)
Type: cell-based, human
Details: Homo sapiens; 10 µM single dose, 48 h; SF-295 (CNS); read-out: Growth inhibition (%)

| Compound | inhibition at 10 µM [%] |
| --- | --- |
| O=C1Nc2cc(Cl)ccc2C1=Cc1ccc(OCc2ccncc2)cc1 (mixture of isomers) [Compound 5p, (E/Z)-6-Chloro-3-[4-(pyridin-4-ylmethoxy)benzylidene]indolin-2-one] | 32.2 |

Tested on: PC-3
Assay: NCI-60 antiproliferative screen (SRB)
Type: cell-based, human
Details: Homo sapiens; 10 µM single dose, 48 h; PC-3 (Prostate); read-out: Growth inhibition (%)

| Compound | inhibition at 10 µM [%] |
| --- | --- |
| O=C1Nc2cc(Cl)ccc2C1=Cc1ccc(OCc2ccncc2)cc1 (mixture of isomers) [Compound 5p, (E/Z)-6-Chloro-3-[4-(pyridin-4-ylmethoxy)benzylidene]indolin-2-one] | 45 |

Tested on: M14
Assay: NCI-60 antiproliferative screen (SRB)
Type: cell-based, human
Details: Homo sapiens; 10 µM single dose, 48 h; M14 (Melanoma); read-out: Growth inhibition (%)

| Compound | inhibition at 10 µM [%] |
| --- | --- |
| O=C1Nc2cc(Cl)ccc2C1=Cc1ccc(OCc2ccncc2)cc1 (mixture of isomers) [Compound 5p, (E/Z)-6-Chloro-3-[4-(pyridin-4-ylmethoxy)benzylidene]indolin-2-one] | 16.9 |

Tested on: NCI/ADR-RES
Assay: NCI-60 antiproliferative screen (SRB)
Type: cell-based, human
Details: Homo sapiens; 10 µM single dose, 48 h; NCI/ADR-RES (Ovarian); read-out: Growth inhibition (%)

| Compound | inhibition at 10 µM [%] |
| --- | --- |
| O=C1Nc2cc(Cl)ccc2C1=Cc1ccc(OCc2ccncc2)cc1 (mixture of isomers) [Compound 5p, (E/Z)-6-Chloro-3-[4-(pyridin-4-ylmethoxy)benzylidene]indolin-2-one] | 59.3 |

Tested on: DU-145
Assay: NCI-60 antiproliferative screen (SRB)
Type: cell-based, human
Details: Homo sapiens; 10 µM single dose, 48 h; DU-145 (Prostate); read-out: Growth inhibition (%)

| Compound | inhibition at 10 µM [%] |
| --- | --- |
| O=C1Nc2cc(Cl)ccc2C1=Cc1ccc(OCc2ccncc2)cc1 (mixture of isomers) [Compound 5p, (E/Z)-6-Chloro-3-[4-(pyridin-4-ylmethoxy)benzylidene]indolin-2-one] | 29.4 |

Tested on: HOP-62
Assay: NCI-60 antiproliferative screen (SRB)
Type: cell-based, human
Details: Homo sapiens; 10 µM single dose, 48 h; HOP-62 (NSCLC); read-out: Growth inhibition (%)

| Compound | inhibition at 10 µM [%] |
| --- | --- |
| O=C1Nc2cc(Cl)ccc2C1=Cc1ccc(OCc2ccncc2)cc1 (mixture of isomers) [Compound 5p, (E/Z)-6-Chloro-3-[4-(pyridin-4-ylmethoxy)benzylidene]indolin-2-one] | 21.4 |

Tested on: SR
Assay: NCI-60 antiproliferative screen (SRB)
Details: Homo sapiens, 48 h, read-out: Growth inhibition (%)

| Compound | inhibition at 10 µM [%] |
| --- | --- |
| O=C1Nc2cc(Cl)ccc2C1=Cc1ccc(OCc2ccncc2)cc1 (mixture of isomers) [Compound 5p, (E/Z)-6-Chloro-3-[4-(pyridin-4-ylmethoxy)benzylidene]indolin-2-one] | 72.6 |

Tested on: SF-539
Assay: NCI-60 antiproliferative screen (SRB)
Type: cell-based, human
Details: Homo sapiens; 10 µM single dose, 48 h; SF-539 (CNS); read-out: Growth inhibition (%)

| Compound | inhibition at 10 µM [%] |
| --- | --- |
| O=C1Nc2cc(Cl)ccc2C1=Cc1ccc(OCc2ccncc2)cc1 (mixture of isomers) [Compound 5p, (E/Z)-6-Chloro-3-[4-(pyridin-4-ylmethoxy)benzylidene]indolin-2-one] | 94.2 |

Tested on: SW-620
Assay: NCI-60 antiproliferative screen (SRB)
Type: cell-based, human
Details: Homo sapiens; 10 µM single dose, 48 h; SW-620 (Colon); read-out: Growth inhibition (%)

| Compound | inhibition at 10 µM [%] |
| --- | --- |
| O=C1Nc2cc(Cl)ccc2C1=Cc1ccc(OCc2ccncc2)cc1 (mixture of isomers) [Compound 5p, (E/Z)-6-Chloro-3-[4-(pyridin-4-ylmethoxy)benzylidene]indolin-2-one] | 49.5 |

Tested on: UACC-257
Assay: NCI-60 antiproliferative screen (SRB)
Type: cell-based, human
Details: Homo sapiens; 10 µM single dose, 48 h; UACC-257 (Melanoma); read-out: Growth inhibition (%)

| Compound | inhibition at 10 µM [%] |
| --- | --- |
| O=C1Nc2cc(Cl)ccc2C1=Cc1ccc(OCc2ccncc2)cc1 (mixture of isomers) [Compound 5p, (E/Z)-6-Chloro-3-[4-(pyridin-4-ylmethoxy)benzylidene]indolin-2-one] | 17.2 |

Tested on: SK-MEL-28
Assay: NCI-60 antiproliferative screen (SRB)
Type: cell-based, human
Details: Homo sapiens; 10 µM single dose, 48 h; SK-MEL-28 (Melanoma); read-out: Growth inhibition (%)

| Compound | inhibition at 10 µM [%] |
| --- | --- |
| O=C1Nc2cc(Cl)ccc2C1=Cc1ccc(OCc2ccncc2)cc1 (mixture of isomers) [Compound 5p, (E/Z)-6-Chloro-3-[4-(pyridin-4-ylmethoxy)benzylidene]indolin-2-one] | -10.9 |
